Experimental data taken from patent US11427567B2, “Imidazolyl pyrimidinylamine compounds as CDK2 inhibitors” (Incyte Corporation, priority 2019, dated 2022).

Molecular target: CDK2/Cyclin E1 (Homo sapiens (Human), UniProt P24941)
Assay: CDK2/Cyclin E1 HTRF enzyme activity assay (Example A)
Assay type: biochemical
Conditions: 1 mM ATP
Protocol: Assays were conducted in white 384-well polystyrene plates in a final reaction volume of 8 μL. […] HTRF signals were read after 1 hour at room temperature on a PHERAstar FS plate reader (BMG Labtech). Data was analyzed with IDBS XLFit and GraphPad Prism 5.0 software using a three or four parameter dose response curve to determine IC50 for each compound.

Row | IC50 | SMILES
1 | ≤ 50 nM | Cn1cnc(S(=O)(=O)N2CCC(Nc3ncc(C(F)(F)F)c(-c4cn(-c5c(Cl)cccc5C#N)cn4)n3)CC2)c1 [Example 5, 3-Chloro-2-(4-(2-((1-((1-methyl-1H-imidazol-4-yl)sulfonyl)piperidin-4-yl)amino)-5-(trifluoromethyl)pyrimidin-4-yl)-1H-imidazol-1-yl)benzonitrile]
2 | ≤ 50 nM | CS(=O)(=O)N1CCC(Nc2ncc(C(F)(F)F)c(-c3cn(-c4cccc(CNC5CCOCC5)c4Cl)cn3)n2)CC1 [Example 368, 4-(1-(2-Chloro-3-(((tetrahydro-2H-pyran-4-yl)amino)methyl)phenyl)-1H-imidazol-4-yl)-N-(1-(methylsulfonyl)piperidin-4-yl)-5-(trifluoromethyl)pyrimi-din-2-amine]
3 | ≤ 50 nM | Cc1ccc(-n2cnc(-c3nc(N[C@H]4CCN(S(=O)(=O)c5cnc(N)nc5)C[C@H]4C)ncc3C(F)(F)F)c2)c(C#N)n1 [Example 153, 3-(4-(2-(((3R,4S)-1-((2-Amino-pyrimidin-5-yl)-sulfonyl)-3-methylpiperidin-4-yl)amino)-5-(trifluoromethyl)-pyrimidin-4-yl)-1H-imidazol-1-yl)-6-methyl-picolinonitrile]
4 | ≤ 50 nM | CS(=O)(=O)N1CCC(Nc2ncc(C(F)(F)F)c(-c3cn(-c4ccnc(N5CCOCC5)c4C#N)cn3)n2)CC1 [Example 317, 4-(4-(2-((1-(Methylsulfonyl)piperidin-4-yl)amino)-5-(trifluoromethyl)pyrimidin-4-yl)-1H-imidazol-1-yl)-2-morpholinonicotinonitrile]
5 | ≤ 50 nM | CS(=O)(=O)N1CCC(Nc2ncc(C(F)(F)F)c(-c3cn(-c4c(Cl)cccc4C#N)cn3)n2)CC1 [Example 2, 3-Chloro-2-(4-(2-((1-(methylsulfonyl)piperidin-4-yl)amino)-5-(trifluoromethyl)pyrimidin-4-yl)-1H-imidazol-1-yl)benzonitrile]
6 | ≤ 50 nM | CC(C#N)Oc1ccc(-n2cnc(-c3nc(NC4CCN(S(C)(=O)=O)CC4)ncc3C(F)(F)F)c2)c(C(F)(F)F)n1 (centres unmarked) [Example 74, 2-((5-(4-(2-((1-(Methylsulfonyl)piperidin-4-yl)amino)-5-(trifluoromethyl)pyrimidin-4-yl)-1H-imidazol-1-yl)-6-(trifluoromethyl)pyridin-2-yl)oxy)propanenitrile]
7 | ≤ 50 nM | CS(=O)(=O)N1CCC(Nc2ncc(C(F)(F)F)c(-c3cn(-c4ccc(Cn5cnnn5)cc4Cl)cn3)n2)CC1 [Example 244, 4-(1-(4-((1H-Tetrazol-1-yl)methyl)-2-chlorophenyl)-1H-imidazol-4-yl)-N-(1-(methylsulfonyl)piperidin-4-yl)-5-(trifluoromethyl)pyrimidin-2-amine]
8 | ≤ 50 nM | Cc1nc(-c2nc(NC3CCN(S(C)(=O)=O)CC3)ncc2C(F)(F)F)cn1-c1ccc(C2CCN(C)CC2)cc1F [Example 161, 4-(1-(2-Fluoro-4-(1-methylpiperidin-4-yl)phenyl)-2-methyl-1H-imidazol-4-yl)-N-(1-(methyl-sulfonyl)piperidin-4-yl)-5-(trifluoro-methyl)pyrimidin-2-amine]
9 | ≤ 50 nM | CC1(CO)CCN1Cc1ccc(-n2cnc(-c3nc(NC4CCN(S(C)(=O)=O)CC4)ncc3C(F)(F)F)c2)c(Cl)c1 (centres unmarked) [Example 201, (1-(3-Chloro-4-(4-(2-((1-(methylsulfonyl)-piperidin-4-yl)amino)-5-(trifluoromethyl)-pyrimidin-4-yl)-1H-imidazol-1-yl)benzyl)-2-methylazetidin-2-yl)methanol]
10 | ≤ 50 nM | Cn1ccc(S(=O)(=O)N2CC[C@@H](Nc3ncc(C(F)(F)F)c(-c4cn(CC(C)(C)O)cn4)n3)[C@H](F)C2)n1 [Example 335, 1-(4-(2-(((3R,4R)-3-Fluoro-1-((1-methyl-1H-pyrazol-3-yl)sulfonyl)piperidin-4-yl)amino)-5-(trifluoromethyl)pyrimidin-4-yl)-1H-imidazol-1-yl)-2-methylpropan-2-ol]
11 | ≤ 50 nM | CCNCc1cc(F)c(-n2cnc(-c3nc(N[C@@H]4CCN(S(C)(=O)=O)C[C@H]4F)ncc3C(F)(F)F)c2)c(F)c1 [Example 390, 4-(1-(4-((Ethylamino)methyl)-2,6-difluorophenyl)-1H-imidazol-4-yl)-N-((3R,4R)-3-fluoro-1-(methylsulfonyl)piperidin-4-yl)-5-(trifluoromethyl)pyrimidin-2-amine]

The remaining lines, values behind:

Row | SMILES | IC50
12 | CS(=O)(=O)N1CCC(Nc2ncc(C(F)(F)F)c(-c3cn(-c4ccc(CN5CCOC5=O)cc4Cl)cn3)n2)CC1 [Example 441, 3-(3-Chloro-4-(4-(2-((1-(methylsulfonyl)piperidin-4-yl)amino)-5-(trifluoromethyl)pyrimidin-4-yl)-1H-imidazol-1-yl)benzyl)oxazolidin-2-one] | ≤ 50 nM
13 | CS(=O)(=O)N1CCC(Nc2ncc(C(F)(F)F)c(-c3cn(-c4ccc(C#N)nc4CO)cn3)n2)CC1 [Example 236, 6-(Hydroxymethyl)-5-(4-(2-((1-(methylsulfonyl)piperidin-4-yl)amino)-5-(trifluoromethyl)pyrimidin-4-yl)-1H-imidazol-1-yl)picolinonitrile] | ≤ 50 nM
14 | Cn1cnc(S(=O)(=O)N2CCC(Nc3ncc(C(F)(F)F)c(-c4cn(-c5cc(N)ncc5F)cn4)n3)CC2)c1 [Example 6, 4-(1-(2-Amino-5-fluoropyridin-4-yl)-1H-imidazol-4-yl)-N-(1-((1-methyl-1H-imidazol-4-yl)sulfonyl)piperidin-4-yl)-5-(trifluoromethyl)pyrimidin-2-amine] | ≤ 50 nM
15 | Cn1cc(-c2ccc(-n3cnc(-c4nc(NC5CCN(S(C)(=O)=O)CC5)ncc4C(F)(F)F)c3)c(C(F)(F)F)n2)cn1 [Example 98, 4-(1-(6-(1-Methyl-1H-pyrazol-4-yl)-2-(trifluoromethyl)pyridin-3-yl)-1H-imidazol-4-yl)-N-(1-(methylsulfonyl)piperidin-4-yl)-5-(trifluoromethyl) pyrimidin-2-amine] | ≤ 50 nM
16 | C[C@@H]1CN(S(C)(=O)=O)CC[C@@H]1Nc1ncc(C(F)(F)F)c(-c2cn(-c3ccc(C4CCCCN4)cc3Cl)cn2)n1 (single isomer, unassigned) [Example 277] | ≤ 50 nM
17 | C[C@@H]1CN(S(C)(=O)=O)CC[C@@H]1Nc1ncc(C(F)(F)F)c(-c2cn(-c3ccc(C#N)cc3Cl)cn2)n1 [Example 172, 3-Chloro-4-(4-(2-(((3R,4S)-3-methyl-1-(methylsulfonyl)-piperidin-4-yl)-amino)-5-(trifluoro-methyl)pyrimidin-4-yl)-1H-imidazol-1-yl)benzonitrile] | ≤ 50 nM
18 | C[C@@H]1CN(S(C)(=O)=O)CC[C@@H]1Nc1ncc(C(F)(F)F)c(-c2cn(-c3ccc(CN(C)C)cc3Cl)cn2)n1 [Example 220, 4-(1-(2-Chloro-4-((dimethylamino)-methyl)phenyl)-1H-imidazol-4-yl)-N-((3R,4S)-3-methyl-1-(methylsulfonyl)-piperidin-4-yl)-5-(trifluoromethyl)-pyrimidin-2-amine] | ≤ 50 nM
19 | Cc1c(-n2cnc(-c3nc(N[C@H]4CCN(S(C)(=O)=O)C[C@H]4F)ncc3C(F)(F)F)c2)ccnc1C#N [Example 302, 4-(4-(2-(((3R,4S)-3-Fluoro-1-(methylsulfonyl)piperidin-4-yl)amino)-5-(trifluoromethyl)pyrimidin-4-yl)-1H-imidazol-1-yl)-3-methylpicolinonitrile] | ≤ 50 nM
20 | CS(=O)(=O)N1CCC(Nc2ncc(C(F)(F)F)c(-c3cn(-c4ccc(Cn5ccnn5)cc4Cl)cn3)n2)CC1 [Example 242, 4-(1-(4-((1H-1,2,3-Triazol-1-yl)methyl)-2-chlorophenyl)-1H-imidazol-4-yl)-N-(1-(methylsulfonyl)piperidin-4-yl)-5-(trifluoromethyl)pyrimidin-2-amine] | ≤ 50 nM
21 | Cn1ncnc1-c1ccc(-n2cnc(-c3nc(NC4CCN(S(C)(=O)=O)CC4)ncc3C(F)(F)F)c2)c(Cl)c1 [Example 121, 4-(1-(2-Chloro-4-(1-methyl-1H-1,2,4-triazol-5-yl)phenyl)-1H-imidazol-4-yl)-N-(1-(methylsulfonyl)-piperidin-4-yl)-5-(trifluoromethyl)-pyrimidin-2-amine] | ≤ 50 nM
22 | CS(=O)(=O)N1CC[C@H](Nc2ncc(C(F)(F)F)c(-c3cn(-c4ccc(C(F)(F)F)cc4C#N)cn3)n2)[C@H](F)C1 [Example 68, 2-(4-(2-(((3R,4S)-3-Fluoro-1-(methylsulfonyl)piperidin-4-yl)amino)-5-(trifluoromethyl)pyrimidin-4-yl)-1H-imidazol-1-yl)-5-(trifluoromethyl)benzonitrile] | ≤ 50 nM
23 | COc1nccc(-n2cnc(-c3nc(NC4CCN(S(C)(=O)=O)CC4)ncc3C(F)(F)F)c2)c1C#N [Example 291, 2-Methoxy-4-(4-(2-((1-(methylsulfonyl)piperidin-4-yl)amino)-5-(trifluoromethyl)pyrimidin-4-yl)-1H-imidazol-1-yl)nicotinonitrile] | ≤ 50 nM
24 | COc1ccc(-n2cnc(-c3nc(NC4CCN(S(C)(=O)=O)CC4)ncc3C(F)(F)F)c2)c(C(F)(F)F)n1 [Example 70, 4-(1-(6-Methoxy-2-(trifluoromethyl)pyridin-3-yl)-1H-imidazol-4-yl)-N-(1-(methylsulfonyl)piperidin-4-yl)-5-(trifluoromethyl)pyrimidin-2-amine] | ≤ 50 nM
25 | CCS(=O)(=O)N1CCC(Nc2ncc(C(F)(F)F)c(-c3cn(CC(C)(C)O)cn3)n2)CC1 [Example 324, 1-(4-(2-((1-(Ethylsulfonyl)piperidin-4-yl)amino)-5-(trifluoromethyl)pyrimidin-4-yl)-1H-imidazol-1-yl)-2-methylpropan-2-ol] | ≤ 50 nM
26 | CCNCc1cc(F)c(-n2cnc(-c3nc(N[C@H]4CCN(S(C)(=O)=O)C[C@H]4F)ncc3C(F)(F)F)c2)c(F)c1 [Example 444, 4-(1-(4-((Ethylamino)methyl)-2,6-difluorophenyl)-1H-imidazol-4-yl)-N-((3R,4S)-3-fluoro-1-(methylsulfonyl)piperidin-4-yl)-5-(trifluoromethyl)pyrimidin-2-amine] | ≤ 50 nM
